Values quoted from earlier work in US20220193002A1, “PROCESS FOR THE PREPARATION OF BAKUCHIOL COMPOSITION SUBSTANTIALLY FREE OF FURANOCOUMARIN IMPURITIES” (K V Natural Ingredients PVT LTD, priority 2020, published 2022).

Test system: S. mutans
Settings: cell growth inhibited in a concentration dependent manner; complete prevention of growth

## C=C[C@@](C)(/C=C/c1ccc(O)cc1)CCC=C(C)C [bakuchiol, 4-[(1E,3S)-3-ethenyl-3,7-dimethylocta-1,6-dienyl]phenol]
  concentration at which the growth of S. mutans was completely prevented: 20 µg/mL
